Our source for the EC50 and IC50 values is patent US7932262B2 (Novartis AG, priority 2006, dated 2011).

Experiment [1] relates to PC-3 cells. As to the kind of experiment: Cell Proliferation Assay (Cell Titer Glo), PC-3 cell line. The format is cell-based. As to conditions: Homo sapiens, PC-3, Cell Proliferation Assay, PC3; read-out: CPEC50 PC3. The method in brief: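 Cell Titer Glo luminescence, read after fresh medium replaced the dosing medium, gave viability of PC-3 cells plated at 1000 cells/well. Compounds, 1:3 serially diluted in DMSO at 500× and then in medium, were added after 3-5 h adhesion and incubated 3 days at 37° C.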
Background: Cellular ATP, detected with luciferase, serves as a proxy for viable cell number.

For experiment [2], the target named is T1, PDK1 kinase (Homo sapiens, UniProt O15530).
T1 sequence (O15530 1-556): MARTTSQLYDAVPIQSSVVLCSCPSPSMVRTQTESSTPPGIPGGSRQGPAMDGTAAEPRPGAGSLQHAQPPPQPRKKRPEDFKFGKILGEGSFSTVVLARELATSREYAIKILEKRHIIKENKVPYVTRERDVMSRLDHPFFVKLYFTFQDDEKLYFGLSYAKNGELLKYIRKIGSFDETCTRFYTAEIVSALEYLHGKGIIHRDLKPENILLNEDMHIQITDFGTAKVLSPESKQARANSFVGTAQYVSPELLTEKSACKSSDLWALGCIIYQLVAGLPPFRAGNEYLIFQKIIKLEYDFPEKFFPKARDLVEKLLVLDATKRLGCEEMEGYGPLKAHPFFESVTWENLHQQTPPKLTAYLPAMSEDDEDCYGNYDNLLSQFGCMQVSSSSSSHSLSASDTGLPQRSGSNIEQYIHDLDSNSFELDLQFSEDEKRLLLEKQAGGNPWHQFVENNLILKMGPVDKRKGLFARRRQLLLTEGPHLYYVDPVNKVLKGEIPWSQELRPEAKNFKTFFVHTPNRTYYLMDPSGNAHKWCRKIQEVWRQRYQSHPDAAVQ
As to the kind of experiment: PDK1 Kinase Alpha Screen Assay. As to conditions: PDK1 Kinase Alpha Screen Assay; read-out: PDK1 IC50. The format is biochemical. The procedure: 1. PDK1 Kinase Alpha Screen Assay
Reagents/Concentrations: The PDK1-4 peptide substrate, biotin-[…]-NH2, was purchased from the Tufts University Core Facility. The final concentration of PDK1-4 peptide substrate was 50 nM The ATP substrate (Adenosine-5′-triphosphate) was purchased from Roche Diagnostics. The final concentration of ATP substrate was 10 uM. Phospho-(Ser/Thr) PKA substrate antibody was purchased from Cell Signaling Technology. The final concentration of antibody was 0.3 mg/ml. The Alpha Screen Protein A detection kit containing donor and acceptor beads was purchased from PerkinElmer Life Sciences. The final concentration of both donor and acceptor beads was 25 μg/ml. Alpha Screen was used for detection. The biotinylated-PDK1-4 peptide was phosphorylated by PDK1 kinase using the ATP substrate. The biotinylated-PDK1-4 peptide substrate was bound to the streptavidin coated donor bead. The antibody was bound to the protein A coated acceptor bead. The antibody bound to the phosphorylated form of the biotinylated PDK-1 peptide substrate, bringing the donor and acceptor beads into close proximity. Laser irradiation of the donor bead at 680 nm generated a flow of short-lived singlet oxygen molecules. When the donor and acceptor beads were in close proximity, the reactive oxygen generated by the irradiation of the donor beads initiated a luminescence/fluorescence cascade in the acceptor beads. This process led to a highly amplified signal with output in the 530-620 nm range. Assays were carried out in 50 mM Tris, pH=7.5, 10 mM MgCl2, 0.1% Bovine Serum Albumin, 0.01% Tween-20, 2 mM Dithiolthreitol, 2.5% Dimethyl Sulfoxide. Reactions were stopped by adding 50 mM Tris, pH=7.5, 90 mM EDTA, 0.1% Bovine Serum Albumin, 0.01% Tween-20.
Procedure: To 10 μl of PDK1-4 peptide, 0.5 μl of test compound in dimethyl sulfoxide is added. PDK1 kinase and ATP are mixed. 10 μl of the PDK1 kinase/ATP mix is added to start the reaction. The reaction is allowed to proceed for 3-18 hours. The reactions are stopped by adding 10 μl of the EDTA-containing stop buffer. Beads are mixed with antibody. 25 μl of the bead/antibody mix is added to the stopped reactions. Plates are incubated at room temperature overnight to allow for detection development before being read. The assay is run is a 384-well format. […]

A word on the IC50: it is the concentration that gives 50% inhibition. In the case of `Cc1ccc(Nc2ncc3ccc(OC4CCNCC4)cc3n2)cc1NS(C)(=O)=O` [Compound 325], the EC50 in experiment [1] fell in the range of 5 to 10 µM. The IC50 in experiment [2] is < 5 µM.
Consider `CC(C)N1CCC(c2c(O)ccc3cnc(Nc4nc5ccccc5s4)nc23)CC1` [Compound 326, 2-(benzo[d]thiazol-2-ylamino)-8-(1-isopropylpiperidin-4-yl)quinazolin-7-ol], for which the EC50 in experiment [1] fell in the range of 5 to 10 µM. For the same compound, the IC50 in experiment [2] is < 5 µM.
The corresponding values for `Cc1cc(Nc2ncc3ccc(OC4CCN(C(C)C)CC4)cc3n2)ccc1F` [Compound 327, N-(4-fluoro-3-methylphenyl)-7-(1-isopropyl-piperidin-4-yloxy)-quinazolin-2-amine] are 5 to 10 µM and < 5 µM.
Taken in the same sequence, the figures for `CC(C)N1CCC(c2c(O)ccc3cnc(Nc4ccc(N5CCOCC5)cc4)nc23)CC1` [Compound 328, 8-(1-isopropylpiperidin-4-yl)-2-(4-morpholinophenylamino)quinazolin-7-ol] were < 5 µM and < 5 µM.
Taken in the same sequence, the figures for `CC(C)NC(=O)c1ccc(Nc2ncc3ccc(OC4CCN(C(C)C)CC4)cc3n2)cc1` [Compound 329, N-isopropyl-4-(7-(1-isopropylpiperidin-4-yloxy)quinazolin-2-ylamino)benzamide] were < 5 µM and < 5 µM.
As to `O=c1[nH]c2ccc(Nc3ncc4ccc(OC5CCNCC5)cc4n3)cc2[nH]1` [Compound 330, 5-(7-(piperidin-4-yloxy)-quinazolin-2-ylamino]-1H-benzo[d]imidazol-2(3H)-one], the EC50 in experiment [1] lay within 5 to 10 µM. The IC50 in experiment [2] is < 5 µM.
The corresponding values for `CC(C)N1CCC(Oc2ccc3cnc(Nc4ccc(S(C)(=O)=O)cc4)nc3c2)CC1` [Compound 331, 7-(1-isopropylpiperidin-4-yloxy)-N-(4-(methylsulfonyl)phenyl)quinazolin-2-amine] are < 5 µM and < 5 µM.
Taken in the same sequence, the figures for `O=S(=O)(c1ccc(Nc2ncc3ccc(OC4CCNCC4)cc3n2)cc1)N1CCOCC1` [Compound 332] were < 5 µM and < 5 µM.
The corresponding values for `O=S(=O)(c1ccc(Nc2ncc3ccc(OC4CCN(CCF)CC4)cc3n2)cc1)N1CCOCC1` [Compound 333, 7-(1-(2-fluoroethyl)piperidine-4-yloxy)-N-(4-(morpholinosulfonyl)phenyl)quinazolin-2-amine] are < 5 µM and < 5 µM.
Regarding `O=S(=O)(c1ccc(Nc2ncc3ccc(OC4CCN(CC(F)F)CC4)cc3n2)cc1)N1CCOCC1` [Compound 334, 7-(1-(2,2-difluoroethyl)piperidin-4-yloxy)-N-(4-(morpholinosulfonyl)phenyl)quinazolin-2-amine], the EC50 in experiment [1] was in the range of 5 to 10 µM. The IC50 in experiment [2] is < 5 µM.
Taken in the same sequence, the figures for `Fc1ccc(Nc2ncc3cccc(OC4CCNCC4)c3n2)cc1` [Compound 335] were < 5 µM and < 5 µM.
For the compound `Brc1ccc(OC2CCNCC2)c2nc(Nc3cccc(N4CCOCC4)c3)ncc12` [Compound 336, 5-bromo-N-(3-morpholinophenyl)-8-(piperidin-4-yloxy)quinazolin-2-amine], in experiment [1], the EC50 lay in the range of 5 to 10 µM. Further, the IC50 in experiment [2] was < 5 µM.
Regarding `CC(C)NC(=O)c1ccc(Nc2ncc3c(Br)ccc(OC4CCNCC4)c3n2)cc1` [Compound 337, 4-(5-bromo-8-(piperidin-4-yloxy)quinazolin-2-ylamino)-N-isopropylbenzamide], the EC50 in experiment [1] was < 5 µM. In addition, in experiment [2], the IC50 was < 5 µM.
On to `Clc1cc(Nc2ncc3c(Br)ccc(OC4CCNCC4)c3n2)ccc1N1CCOCC1` [Compound 338, 5-bromo-N-(3-chloro-4-morpholinophenyl)-8-(piperidine-4-yloxy) quinazolin-2-amine], for which, in experiment [1], the EC50 was < 5 µM. Also, the IC50 in experiment [2] was < 5 µM.
With `Fc1cc(Nc2ncc3c(Br)ccc(OC4CCNCC4)c3n2)ccc1N1CCOCC1` [Compound 339, 5-bromo-N-(3-fluoro-4-morpholinophenyl)-8-(piperidin-4-yloxy)quinazolin-2-amine], the EC50 in experiment [1] was < 5 µM. Further, the IC50 in experiment [2] was < 5 µM.
Turning to `Cc1ccc(OC2CCNCC2)c2nc(Nc3ccc(C(=O)NC(C)C)cc3)ncc12` [Compound 340, N-isopropyl-4-(5-methyl-8-(piperidin-4-yloxy)quinazolin-2-ylamino)benzamide], in experiment [1], the EC50 was 5 to 10 µM. Also, the IC50 in experiment [2] was < 5 µM.
For the compound `O=C(NC1CC1)c1ccc(Nc2ncc3c(Br)ccc(OC4CCNCC4)c3n2)cc1` [Compound 341, 4-(5-bromo-8-(piperidin-4-yloxy)quinazolin-2-ylamino)-N-cyclopropylbenzamide], in experiment [1], the EC50 lay within 5 to 10 µM. In addition, in experiment [2], the IC50 was < 5 µM.
Taken in the same sequence, the figures for `CC(C)NS(=O)(=O)c1ccc(Nc2ncc3c(Br)ccc(OC4CCNCC4)c3n2)cc1` [Compound 342, 4-(5-bromo-8-(piperidin-4-yloxy)quinazolin-2-ylamino)-N-isopropylbenzenesulfonamide] were < 5 µM and < 5 µM.
Taken in the same sequence, the figures for `O=C(c1ccc(Nc2ncc3ccc(-c4cnn(CCF)c4)cc3n2)cc1)N1CCOCC1` [Compound 343, (4-(7-(1-(2-fluoroethyl)-1H-pyrazol-4-yl)quinazolin-2-ylamino)phenyl)(morpholino)methanone] were < 5 µM and < 5 µM.
For `O=C(c1ccc(Nc2ncc3ccc(-c4cn[nH]c4)cc3n2)cc1)N1CCOCC1` [Compound 344, (4-(7-(1H-pyrazol-4-yl)quinazolin-2-ylamino)phenyl)(morpholino)methanone], the EC50 in experiment [1] is < 5 µM. Moreover, in experiment [2], the IC50 was < 5 µM.
On to `CN1CCC(Nc2ccc3cnc(Nc4ccc(C(=O)N5CCOCC5)cc4)nc3c2)CC1` [Compound 345, (4-(7-(1-methylpiperidin-4-ylamino)quinazolin-2-ylamino)phenyl)(morpholino)methanone], for which, in experiment [1], the EC50 is < 5 µM. The IC50 in experiment [2] is < 5 µM.
For the compound `CN1CCC(Nc2ccc3cnc(Nc4ccc(S(=O)(=O)N5CCOCC5)cc4)nc3c2)CC1` [Compound 346, N7-(1-methylpiperidin-4-yl)-N2-(4-(morpholinosulfonyl)phenyl)quinazoline-2,7-diamine], the EC50 in experiment [1] is < 5 µM. Also, the IC50 in experiment [2] was < 5 µM.
Take `O=C(c1ccc(Nc2ncc3ccc(NC4CCNCC4)cc3n2)cc1)N1CCOCC1` [Compound 347, morpholino(4-(7-(piperidin-4-ylamino)quinazolin-2-ylamino)phenyl)methanone]: in experiment [1], the EC50 was < 5 µM. Further, the IC50 in experiment [2] was < 5 µM.
Consider `CN1CCC(CNc2ccc3cnc(Nc4ccc(C(=O)N5CCOCC5)cc4)nc3c2)CC1` [Compound 348], for which the EC50 in experiment [1] was in the range of 5 to 10 µM. Also, the IC50 in experiment [2] was < 5 µM.
Take `COCCn1cc(-c2ccc3cnc(Nc4ccc(C(=O)N5CCOCC5)cc4)nc3c2)cn1` [Compound 349, (4-(7-(1-(2-methoxyethyl)-1H-pyrazol-4-yl)quinazolin-2-ylamino)phenyl)(morpholino)methanone]: in experiment [1], the EC50 is < 5 µM. Besides, in experiment [2], the IC50 was < 5 µM.
As for `CC(C)NS(=O)(=O)c1ccc(Nc2ncc3ccc(NC4CCN(C)CC4)cc3n2)cc1` [Compound 350, N-isopropyl-4-(7-(1-methylpiperidin-4-ylamino)quinazolin-2-ylamino)benzenesulfonamide], the EC50 in experiment [1] is < 5 µM. Also, the IC50 in experiment [2] is < 5 µM.
Take `O=C(c1ccc(Nc2ncc3ccc(NCC4CCNCC4)cc3n2)cc1)N1CCOCC1` [Compound 351, morpholino(4-(7-(piperidin-4-ylmethylamino)quinazolin-2-ylamino)phenyl)methanone]: the EC50 in experiment [1] is 5 to 10 µM. Besides, the IC50 in experiment [2] was < 5 µM.
